{"source": "ChEMBL document CHEMBL1127219", "about": "“A convergent synthesis of 4-(2-benzothiazoyl)piperidines with antihistamic activity” (Bioorg Med Chem Lett, 1993)", "key": {"[1]": {"species_on_record": "Cavia porcellus", "experiment": "Concentration required to antagonize the histamine induced contractile response of guinea pig ileum", "format": "functional", "settings": "read-out: pA2 (converted)"}, "[2]": {"experiment": "Dose causing 50% death of the population when tested in mice", "format": "ADME", "settings": "mouse, in vivo"}}}
{"molecule": "COc1ccc(CCN2CCC(C(=O)c3nc4ccccc4s3)CC2)cc1", "values": [{"measurement": "Kb", "setting": "[1]", "value": 0.501, "unit": "nM"}, {"measurement": "LD50", "setting": "[2]", "value": "> 400", "unit": "mg/kg"}]}
{"molecule": "COc1ccc(CCN2CCC(C(O)(c3ccccc3)c3nc4ccccc4s3)CC2)cc1", "note": "(centres undefined)", "values": [{"measurement": "Kb", "setting": "[1]", "value": 39.8, "unit": "nM"}]}
{"molecule": "COc1ccc(OCCCN2CCC(C(=O)c3nc4ccccc4s3)CC2)cc1", "values": [{"measurement": "Kb", "setting": "[1]", "value": 5.01, "unit": "nM"}, {"measurement": "LD50", "setting": "[2]", "value": "> 400", "unit": "mg/kg"}]}
{"molecule": "COc1ccc(CCN2CCC(C(O)c3nc4ccccc4s3)CC2)cc1", "note": "(centres undefined)", "values": [{"measurement": "Kb", "setting": "[1]", "value": 6.31, "unit": "nM"}]}
{"molecule": "C=C(c1nc2ccccc2s1)C1CCN(CCc2ccc(OC)cc2)CC1", "values": [{"measurement": "Kb", "setting": "[1]", "value": 1.58, "unit": "nM"}]}
{"molecule": "O=C(c1nc2ccccc2s1)C1CCN(CCc2ccccc2)CC1", "values": [{"measurement": "Kb", "setting": "[1]", "value": 15.8, "unit": "nM"}, {"measurement": "LD50", "setting": "[2]", "value": "> 400", "unit": "mg/kg"}]}
{"molecule": "COc1cccc(CN2CCC(C(=O)c3nc4ccccc4s3)CC2)c1", "values": [{"measurement": "Kb", "setting": "[1]", "value": 50.1, "unit": "nM"}, {"measurement": "LD50", "setting": "[2]", "value": 400, "unit": "mg/kg"}]}
{"molecule": "COC(=O)CN1CCC(C(=O)c2nc3ccccc3s2)CC1", "values": [{"measurement": "Kb", "setting": "[1]", "value": "~100", "unit": "nM"}, {"measurement": "LD50", "setting": "[2]", "value": "> 400", "unit": "mg/kg"}]}
{"molecule": "COC(=O)c1ccc(OCCCN2CCC(C(=O)c3nc4ccccc4s3)CC2)cc1", "values": [{"measurement": "Kb", "setting": "[1]", "value": 2.51, "unit": "nM"}, {"measurement": "LD50", "setting": "[2]", "value": "> 400", "unit": "mg/kg"}]}
{"molecule": "CC(=O)Nc1ccc(OCCCN2CCC(C(=O)c3nc4ccccc4s3)CC2)cc1", "values": [{"measurement": "Kb", "setting": "[1]", "value": 7.94, "unit": "nM"}, {"measurement": "LD50", "setting": "[2]", "value": "> 400", "unit": "mg/kg"}]}
{"molecule": "O=C(c1nc2ccccc2s1)C1CCN(CCc2ccc(F)cc2)CC1", "values": [{"measurement": "Kb", "setting": "[1]", "value": 3.98, "unit": "nM"}, {"measurement": "LD50", "setting": "[2]", "value": "> 400", "unit": "mg/kg"}]}
